In patent publication US10639299B2, “Calcium sensing receptors, ligands, compositions, and methods of use” (Georgia State University Research Foundation, Inc., priority 2016, dated 2020):

Target: T1, hCaSR-ECD (Homo sapiens, UniProt P41180)
T1 construct: made in house; host or cells: HEK293S (GnTI-) suspension culture, secreted
T1 sequence (P41180 20-612): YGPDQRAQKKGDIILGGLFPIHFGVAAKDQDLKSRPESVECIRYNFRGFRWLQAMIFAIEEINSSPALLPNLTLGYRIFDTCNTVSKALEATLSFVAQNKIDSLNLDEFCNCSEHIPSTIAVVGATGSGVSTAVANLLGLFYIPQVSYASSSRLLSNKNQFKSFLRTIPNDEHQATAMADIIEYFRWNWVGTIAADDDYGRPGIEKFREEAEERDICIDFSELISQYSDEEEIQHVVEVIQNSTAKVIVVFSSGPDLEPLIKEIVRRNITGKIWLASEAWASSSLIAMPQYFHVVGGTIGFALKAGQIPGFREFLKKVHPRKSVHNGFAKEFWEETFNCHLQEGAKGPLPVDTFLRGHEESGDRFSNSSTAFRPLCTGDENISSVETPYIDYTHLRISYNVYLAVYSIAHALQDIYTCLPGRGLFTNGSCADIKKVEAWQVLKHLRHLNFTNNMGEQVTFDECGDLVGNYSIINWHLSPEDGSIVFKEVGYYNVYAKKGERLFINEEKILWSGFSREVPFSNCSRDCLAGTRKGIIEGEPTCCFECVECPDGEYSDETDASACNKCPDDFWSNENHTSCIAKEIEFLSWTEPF
Test: Phenylalanine replacement of TNCA bound to hCaSR-ECD, LC-ESI-MS
Assay type: binding
Conditions: overnight, 838 at 0 mM
Procedure: Considering CaSR ligand is tightly bound with hCaSR-ECD, it is conceivable that hCaSR-ECD has to be denatured to release CaSR ligand. To extract CaSR ligand, 50 μL of purified hCaSR-ECD (10 mg/mL) was mixed with 120 μL acetonitrile and vortexed. After high speed centrifugation, 10 μL of the CaSR ligand extract was injected onto a reverse-phase ACQUITY UPLC BEH C18 column (2.1 mm×100 mm, 1.7-μm particle size; Waters). Column temperature was maintained at 40° C. The flow rate was 0.3 mL/min with starting conditions at 99% solvent A (water+0.1% formic acid) and 1% solvent B (acetonitrile). The 15-min gradient profile for elution was as follows: starting at 1% solvent B and hold for 1 min, then ramping to 98% B at 10 min, hold at 98% B to 12 min, at 12.01 min return to 99% A/1% B and maintain until 15 min. The samples were analyzed by using a Waters Xevo G2-XS QToF LC-MS interfaced to a Waters Acquity UPLC system. […] Fragmentation, formula, and abundances were analyzed with Waters MassLynx Software.
A phenylalanine replacement experiment was carried out by mixing purified hCaSR-ECD protein (0.26 mg/mL) with phenylalanine (final concentrations are 0, 50 and 150 mM, respectively). […] The protein samples were adjusted to the same concentration using SEC buffer and analyzed by LC-ESI-MS.

With N[C@@H](Cc1ccccc1)C(=O)O [Phe, phenylalanine] the “area under the MS peak of TNCA remaining bound to hCaSR-ECD” value (50 mM phenylalanine) was 180 and the “area under the MS peak of TNCA remaining bound to hCaSR-ECD” value (150 mM phenylalanine) was 76.
